Results from patent publication US10421676B2, “Bactericidal/algicidal method” (priority 2007, dated 2019).

Assay: Open-circulating cooling water system, change over time in combined and free chlorine (Example 4 / Comparative Example 1)
Assay type: physicochemical
Conditions: for Combined chlorine: total residual chlorine minus free chlorine (DPD)
From the text: In this open-circulating cooling water system, cooling water is supplied from a cooling tower 1 to a heat exchanger 3 via a cooling water pipe 2 and a pump P, and is returned to the cooling tower 1 via a cooling water pipe 4. The cooling tower 1 (refrigeration capacity: 400 RT, water storage capacity: 30 m^3) was operated at a concentration factor of 5. The cooling tower 1 has a fan F and contains therein air-conditioning cooling water W. The free chlorine concentration of the air-conditioning cooling water W is measured by means of a sensor S and controlled by means of a free chlorine control section 5 and a combined chlorine control section 6. The free chlorine control section 5 includes a chemical tank 51 and a chemical feed inlet 52. Combined chlorine control section 6 includes a chemical tank 61 and a chemical feed inlet 62. The amount of free chlorine or combined chlorine is controlled on the basis of the free chlorine concentration as measured by means of the sensor S employing an ORP electrode.
The amount of free chlorine was controlled through addition of a hypochlorite salt. Chlorosulfamic acid was employed as combined chlorine.
In the water system, chlorosulfamic acid was added so that the chlorine concentration was adjusted to 15 mg-Cl/L with respect to blowing down the cooling water. In the water system, the amount of the hypochlorite salt added was controlled by means of the sensor S so that free chlorine concentration was 0.5 mg-Cl/L. Combined chlorine concentration was measured through the DPD method (determined by use of the following relation: combined chlorine concentration=total residual chlorine concentration−free chlorine concentration).
Flaked slime was non-forcedly discharged through blowing down at an intensity according to the concentration factor, and a forced removal of the slime (e.g., cleaning) was not carried out. Thus, the water system was continuously operated, and change over time in combined chlorine concentration and free chlorine concentration in the water system was observed.
The water system was continuously operated under the same conditions as in Example 4 (i.e., chlorosulfamic acid was added so that the chlorine concentration was adjusted to 15 mg-Cl/L with respect to blowing down the cooling water), except that free chlorine concentration was not controlled.

SMILES: O=S(=O)(O)NCl [Comparative Example 1, Chlorosulfamic acid]
- Combined chlorine concentration, level over the operation period (operation period up to 20 days): maintained at low level
- Free chlorine (period 1 days): 0.0 mg/L
- Combined chlorine (period 1 days): 3 mg/L
- Free chlorine (period 2 days): 0.0 mg/L
- Combined chlorine (period 2 days): 4 mg/L
- Free chlorine (period 8 days): 0.1 mg/L
- Combined chlorine (period 8 days): 3 mg/L
- Free chlorine (period 14 days): 0.0 mg/L
- Combined chlorine (period 14 days): 2 mg/L
- Free chlorine (period 20 days): 0.1 mg/L
- Combined chlorine (period 20 days): 4 mg/L
